Consider 2 molecules from US20180187184A1, “NOVEL CONSTRUCTS AND SCREENING METHODS” (Systasy Bioscience GmbH, priority 2016, published 2018).

The test system of one test is primary neurons. Description: Rotenone dose-response cell viability assay (nuclei count, genomic DNA and total RNA quantification). The format is cell-based, mouse. The following applies: for IC50: Mus musculus, Primary neuron, 168 h. On the procedure:
Cells were incubated under appropriate culturing conditions until DIV14.
Cell nuclei were stained on DIV14 with Hoechst dye and evaluated with a Zeiss Observer Z1 microscope. Subsequently, the neuron cultures were lysed and gDNA as well as total RNA was isolated using the Qiagen AllPrep DNA/RNA Mini Kit. The gDNA and total RNA concentrations were determined using a UV spectrophotometer.
The present inventors first evaluated changes in the abundance of genomic DNA and total RNA in response to cytotoxic stress within a primary neuron population.

A further test deals with E-SARE sensor. Nature of the test: E-SARE luciferase activity in primary neurons upon stimulation. The format is cell-based, mouse. The following applies: DIV14. From the text: For multiplate assays, cells were transfected (for cell lines) using Lipofectamine2000 (Invitrogen) according to the manufacturer's instructions or infected (for primary neurons) by an E-SARE-luciferase containing AAV with 500-1000 AAV GCs per cell.
The assay compares an unstimulated response with a stimulated response.
Finally, the E-SARE sensor not only responds to neuronal silencing (TTX/APV) and synaptic stimulation (BIC/4-AP), but can also be induced by brain-derived neurotrophic factor (BDNF) which is a well-established stimulus with functions in neuronal differentiation and plasticity (FIG. 6C) (Park H and Poo M. Nat Rev Neurosci. 2013 January; 14(1):7-23). The optimized and validated E-SARE sensor has been subsequently used for developing the pooled RNAi screen in primary neurons.

Like-named read-outs stand apart in the source and are kept apart here.

Regarding `C=C(C)[C@H]1Cc2c(ccc3c2O[C@@H]2COc4cc(OC)c(OC)cc4[C@@H]2C3=O)O1` [rotenone], the IC50 (usually the point on the concentration scale where inhibition reaches its midpoint) was 40 nM in the test on primary neurons (read-out: IC50, genomic DNA content); 15 nM in the test on primary neurons (read-out: IC50, total RNA content); 14 nM with primary neurons (read-out: IC50, viable cells (pyknotic nuclei filtered out)). Also, the “reduction of genomic DNA content” value in the test on primary neurons (rotenone concentrations above 100 nM, 7 days) is reported as ~40%.

B1: brain-derived neurotrophic factor (protein, UniProt P23560 19-247, looked up)
Neurotrophic factor BDNF …: APMKEANIRGQGGLAYPGVRTHGTLESVNGPKAGSRGLTSLADTFEHVIEELLDEDQKVRPNEENNKDADLYTSRVMLSSQVPLEPPLLFLLEEYKNYLDAANMSMRVRRHSDPARRGELSVCDSISEWVTAADKKTAVDMSGGTVTVLEKVPVSKGQLKQYFYETKCNPMGYTKEGCRGIDKRHWNSQCRTTQSYVRALTMDSKKRIGWRFIRIDTSCVCTLTIKRGR
notes: well-established stimulus with functions in neuronal differentiation and plasticity
Regarding B1, the E-SARE sensor activity entry in the test with E-SARE sensor is listed as “induced”.
